In patent publication US9981909B2 (Janssen Pharmaceutica NV, priority 2008, dated 2018):
pKi: −log10 of the molar value. Where a name gives a salt, the structure may show the parent alone. Blank lines part the entries; values can stand above or below the compound they belong to.

How the values were obtained:
[1] = biological target: rat 5-HT7 receptor (Rattus norvegicus (Rat), UniProt P32305); test: r5-HT7 binding assay, competitive radioligand binding with [3H]5-CT
Method in brief: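 Rat 5-HT7 binding: HEK-293 membrane fractions, [3H]5-CT displacement, radioactivity counted, Ki reported. Antagonist mode: intact r5-HT7 HEK-293 cells, test compound 10 min, then 5-CT 100 nM for 20 min, lysis, cAMP by competitive immunoassay.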

[2] = biological target: r5-HT7 receptor (Rattus norvegicus (Rat), UniProt P32305); test: HitHunter cAMP assay, antagonist testing against 100 nM 5-CT; type: cell-based; conditions: antagonist testing, 100 nM 5-CT challenge, HEK-293 r5-HT7; read-out: R5HT7 cAMP pKb (converted)
Procedure: (§1) Receptor binding was performed using membrane fractions prepared from the HEK-293 cell line recombinantly expressing rat 5-HT7 receptors (NCBI accession NM_022938). Compound affinity for the rat 5-HT7 receptor subtype was evaluated by competitive radioligand binding assays using 5-carboxamido[^3H]tryptamine ([^3H]5-CT) (Amersham Biosciences, cat. 90000403) detection. HitHunter™ cAMP assays are in-vitro based competitive immunoassays. The assay was performed on the HEK-293 cell line stably transfected with r5-HT7 receptor. Cells were pre-incubated with test compounds for 10 minutes. For antagonist testing, the cells were then challenged with 100 nM 5-CT for 20 minutes. Cells were then lysed and cAMP measured according to manufacturers protocol (Amersham, cat. NET791250UC) or [^3H]mesulergine (Amersham, cat. TRK1041). The assay was performed on membranes prepared from HEK-293 cells stably transfected with h5-HT6. Following centrifugation, membranes were resuspended and incubated for 60 min at room temperature with 1.7 nM [^3H]LSD in the presence of increasing concentration of test compounds. Nonspecific binding was defined in the presence of 10 μM clozapine (Tocris, cat. TRK1068). Homogenized HEK-293 membranes expressing the human SERT were incubated in 50 mM Tris-HCl (pH 7.5), 120 mM NaCl, 5 mM KCl with [^3H]-citalopram (3 nM) with or without test compounds. Nonspecific binding was determined in the presence of 10 μM fluoxetine. Radioactivity readouts and Ki values were performed as previously described for r5-HT7. […] Compounds were assayed in their free form or as salts, as indicated in the Examples section above.

[3] = biological target: human SERT (Homo sapiens (Human), UniProt P31645); test: human SERT binding assay with [3H]-citalopram on HEK-293 membranes; conditions: read-out: hSERT binding Ki
Procedure: as §1

[4] = rat 5-HT7 receptor, HEK-293 membranes

Chain of human SERT (P31645 whole entry): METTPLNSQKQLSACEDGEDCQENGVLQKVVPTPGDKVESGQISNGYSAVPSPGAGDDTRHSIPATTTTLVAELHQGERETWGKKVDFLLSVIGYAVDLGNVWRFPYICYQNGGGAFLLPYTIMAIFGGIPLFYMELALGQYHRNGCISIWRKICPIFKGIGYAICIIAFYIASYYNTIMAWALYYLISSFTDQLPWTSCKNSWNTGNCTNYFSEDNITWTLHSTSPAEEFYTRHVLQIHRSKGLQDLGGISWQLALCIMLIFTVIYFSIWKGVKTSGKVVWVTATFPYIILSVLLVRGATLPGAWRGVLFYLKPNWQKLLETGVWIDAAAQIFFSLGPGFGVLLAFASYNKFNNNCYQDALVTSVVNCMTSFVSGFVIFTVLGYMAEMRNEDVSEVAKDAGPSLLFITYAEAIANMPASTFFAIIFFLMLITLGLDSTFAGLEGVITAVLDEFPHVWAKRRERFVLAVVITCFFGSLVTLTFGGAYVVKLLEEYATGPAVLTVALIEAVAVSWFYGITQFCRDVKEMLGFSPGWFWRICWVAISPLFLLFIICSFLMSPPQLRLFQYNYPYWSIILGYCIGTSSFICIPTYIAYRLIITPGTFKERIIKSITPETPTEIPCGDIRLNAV
Chain of r5-HT7 receptor (P32305 1-435): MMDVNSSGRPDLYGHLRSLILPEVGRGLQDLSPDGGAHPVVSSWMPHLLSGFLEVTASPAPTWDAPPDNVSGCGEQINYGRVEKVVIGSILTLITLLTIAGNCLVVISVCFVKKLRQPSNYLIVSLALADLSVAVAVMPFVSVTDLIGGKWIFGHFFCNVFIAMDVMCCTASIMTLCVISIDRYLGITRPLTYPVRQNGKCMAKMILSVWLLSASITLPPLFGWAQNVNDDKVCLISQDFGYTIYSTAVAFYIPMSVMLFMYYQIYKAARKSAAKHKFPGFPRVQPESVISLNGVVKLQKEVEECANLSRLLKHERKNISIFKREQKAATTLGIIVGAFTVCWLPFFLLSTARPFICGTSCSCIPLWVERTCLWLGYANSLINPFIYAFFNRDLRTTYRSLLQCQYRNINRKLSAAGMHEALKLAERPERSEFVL
Chain of rat 5-HT7 receptor (P32305 1-435): as above

SMILES: Cc1ccc2c(c1)C(Oc1ccc(Br)cc1OC1CNC1)CC2 (racemic) [Example 156, (±)-3-[5-Bromo-2-(6-methyl-indan-1-yloxy)-phenoxy]-azetidine]
pKi [1, 4]: 6.60
Kb [2]: > 10000 nM

SMILES: Clc1ccc(Oc2ccc(Cl)cc2OC2CNC2)cc1 [Example 258, 3-[5-Chloro-2-(4-chloro-phenoxy)-phenoxy]-azetidine trifluoroacetate]
pKi ([1]; rat 5-HT7, HEK-293 membranes): 7.64
Kb [2]: 501 nM

SMILES: O=C(c1ccc(Cl)cc1)c1ccc(Br)cc1OC1CNC1 [Example 281, [2-(Azetidin-3-yloxy)-4-bromo-phenyl]-(4-chloro-phenyl)-methanone]
pKi ([1]; rat 5-HT7, HEK-293 membranes): 7.32
Kb [2]: 316 nM

SMILES: Brc1cccc(Oc2ccc(Br)cc2OC2CNC2)c1 [Example 245, 3-[5-Bromo-2-(3-bromo-phenoxy)-phenoxy]-azetidine]
pKi ([1]; rat 5-HT7, HEK-293 membranes): 8.05
Kb [2]: 200 nM

SMILES: CC(Oc1ccc(Cl)cc1OC1CN(C(C)(C)C)C1)c1cccc(C(F)(F)F)c1 (stereo not drawn) [Example 231, 1-tert-Butyl-3-[5-chloro-2-[1-(3-trifluoromethyl-phenyl)-ethoxy]-phenoxy]-azetidine]
pKi ([1]; rat 5-HT7, HEK-293 membranes): 7.82
pKi [3]: 5.35

SMILES: CON=C(COc1ccc(Cl)cc1OC1CNC1)c1ccccc1 [Example 182, 2-[2-(Azetidin-3-yloxy)-4-chloro-phenoxy]-1-phenyl-ethanone O-methyl-oxime]
pKi [1, 4]: 7.12
pKi [3]: 6.29

SMILES: CC1(Oc2cc(Br)ccc2OCc2ccc(C(F)(F)F)o2)CNC1 [Example 216]
pKi ([1]; rat 5-HT7, HEK-293 membranes): 7.80
pKi [3]: 7.44

SMILES: Fc1ccc2c(c1)CC(Oc1ccc(Cl)cc1OC1CNC1)C2 (stereo not drawn) [Example 175, 3-[5-Chloro-2-(5-fluoro-indan-2-yloxy)-phenoxy]-azetidine]
pKi [1, 4]: 7.96
pKi [3]: 8.40

SMILES: CC(Oc1ccc(Cl)cc1OC1CNC1)c1cccc(F)c1 (racemic) [Example 115, (±)-3-[5-Chloro-2-[1-(3-fluoro-phenyl)-ethoxy]-phenoxy]-azetidine]
pKi [1, 4]: 7.48
pKi [3]: 6.69

SMILES: C[C@@H]1[C@H](Oc2cc(Br)ccc2OCc2cccc(F)c2)CN1Cc1ccccc1 (relative stereo) [Example 220, cis-1-Benzyl-3-[5-bromo-2-(3-fluoro-benzyloxy)-phenoxy]-2-methyl-azetidine]
pKi ([1]; rat 5-HT7, HEK-293 membranes): 6.31
pKi [3]: 6.10

SMILES: CC(C)(C)N1CC(Oc2cc(Br)ccc2OCc2cccc(F)c2)C1 [Example 229, 3-[5-Bromo-2-(3-fluoro-benzyloxy)-phenoxy]-1-tert-butyl-azetidine]
pKi ([1]; rat 5-HT7, HEK-293 membranes): 8.52
pKi [3]: 6.03

Results, then the compound that gave them:

pKi [1, 4]: 7.64
Kb [2]: 31.6 nM
SMILES: CC(Oc1ccc(Br)cc1OC1CNC1)c1cccc(C(F)(F)F)c1 (racemic) [Example 112, (±)-3-[5-Bromo-2-[1-(3-trifluoromethyl-phenyl)-ethoxy]-phenoxy]-azetidine]

pKi [1, 4]: 7.77
Kb [2]: 631 nM
SMILES: Fc1cccc(COc2ccc(Br)cc2OC2CCNCC2)c1 [Example 68, 4-[5-Bromo-2-(3-fluoro-benzyloxy)-phenoxy]-piperidine]

pKi [1, 4]: 6.90
pKi [3]: 7.55
SMILES: Clc1cccc(COc2cc(Br)ccc2OC2CNC2)c1 [Example 22, 3-[4-Bromo-2-(3-chloro-benzyloxy)-phenoxy]-azetidine]

pKi ([1]; rat 5-HT7, HEK-293 membranes): 7.57
pKi [3]: 7.64
SMILES: Clc1cccc(COc2ccc(Br)cc2OCC2CNC2)c1 [Example 233, 3-[5-Bromo-2-(3-chloro-benzyloxy)-phenoxymethyl]-azetidine]

pKi [1, 4]: 7.28
pKi [3]: 7.54
SMILES: FC(F)(F)c1ccccc1COc1ccc(Cl)cc1OC1CNC1 [Example 32, 3-[5-Chloro-2-(2-trifluoromethyl-benzyloxy)-phenoxy]-azetidine]

pKi [1, 4]: 7.14
pKi [3]: 5.87
SMILES: CC(Oc1ccc(Cl)cc1OC1CNC1)c1nc2ccccc2s1 (stereo not drawn) [Example 131, 2-[1-[2-(Azetidin-3-yloxy)-4-chloro-phenoxy]-ethyl]-benzothiazole]

pKi [1, 4]: 7.02
pKi [3]: 6.39
SMILES: Cn1nnc2ccc(COc3ccc(Cl)cc3OC3CNC3)cc21 [Example 85, 6-[2-(Azetidin-3-yloxy)-4-chloro-phenoxymethyl]-1-methyl-1H-benzotriazole]
